Series [1] in a line: Stability of GNE4 in rat intestinal S9 and feces. In kind it is in vitro ADME. To be noted: rat intestinal S9 and feces (data not shown).
The conditions of series [2]: BDC rats, over 72 hours.

Read-outs that look alike come from different tables or passages of the source.

Turning to `CC(=O)N[C@H]1CC[C@H](CNc2ncc(Cl)c(Nc3cc(C4CC4)[nH]n3)n2)CC1` [GNE4, N-((1r,4r)-4-(((5-chloro-4-((5-cyclopropyl-1H-pyrazol-3-yl)amino)pyrimidin-2-yl)amino)methyl)cyclohexyl)acetamide], the “GNE4 amount relative to parent (fold less) in urine, feces and bile combined” value (intact rats, over 72 hours) is “approximately 13 fold”; the “GNE4 amount relative to parent (fold less) in urine, feces and bile combined” value in series [2] is recorded as about 8 fold. The “Amount of GNE4 (N-acetylated metabolite of GNE1) detected in feces” value (rat, after IV GNE1, up to 24 hours, % of total dose) is 9.5%. Moreover, in series [1], the Stability to hydrolysis entry is “stable to hydrolysis”.

(Values after article PMC5405622 (Drug Metabolism Letters, 2016).)
